This is an account of results in patent publication US20140242707A1, “Compositions and Methods for Diagnosing Hypercoagulability and Hypocoagulability” (Philadelphia Health & Education Corporation d/b/a Drexel …, priority 2011, published 2014).

In one assay the test system is human or rabbit plasma. Conditions: 100 μM CORM-2, humans or rabbits; cited from earlier work.
The test system of the next assay is ear bleeding time. Conditions: CORM-2 intravenously, cited from earlier work.
The test system of the next assay is horse plasma. In words: Thrombelastography of horse plasma, coagulation study (no tPA). It is filed as biochemical. On the set-up: increase in TTG vs control / decrease in MRTG vs control / decrease in TTG vs control / decrease in MRTG vs control sample / decrease in TTG vs control sample / increase in MRTG vs control sample / increase in TTG vs control sample: concentration or dose not given beside the values. Conditions: for MRTG / TMRTG / TTG / MA / R / α: PHA 10 mM, CORM-2 100 μM. As for the experimental part: Blood was collected directly into plastic tubes containing 0.105 M sodium citrate (9:1, v/v) from the jugular vein of ten clinically normal grade and American Quarter Horse mares between 400 and 600 kg. Three additional horses to be subsequently described with acute gastrointestinal disease had blood samples similarly collected. The mares were group-housed in corrals. Plasma was obtained by centrifugation of citrated whole blood at 3000×g for 15 minutes and immediately frozen at −80° C. Plasma was subsequently shipped on dry ice and stored at −80° C. until thrombelastographic analysis.
The final volume for all subsequently described plasma sample mixtures was 359.6 μl. Sample composition for this series of experiments consisted of 326 μl of plasma; 10 μl of tissue factor reagent (0.1% final concentration in dH2O; Diagnostica Stago S.A.S., Asnieres sur Seine, France); 3.6 μl of dH2O, or 3.6 μl dH2O containing the heme-binding reductant phenylhydroxylamine (PHA, 10 mM final concentration, Sigma-Aldrich, Saint Louis, Mo., USA), or 3.6 μl of dimethyl sulfoxide with CORM-2 (100 μM final concentration; Sigma-Aldrich, Saint Louis, Mo., USA); and 20 μl of 200 mM CaCl2. As previously described in human plasma (McMichael et al., 2011, Blood Coagul Fibrinolysis, 22: 424-430), this diagnostic panel is designed to determine hemostatic kinetic changes following of formation of carboxyhemefibrinogen (Fe^+2 state) after exposure to CO released from CORM-2 and to determine the effects of formation of methemefibrinogen (Fe^+3 state) after exposure to PHA. The relative change from baseline kinetics caused by exposure to CORM-2 and PHA allow determination of the balance between oxy/carboxy/methemefibrinogen concentrations in human plasma (McMichael et al., 2011, Blood Coagul Fibrinolysis, 22: 424-430).
Plasma sample mixtures were placed in a disposable cup in a computer-controlled Thrombelastograph® hemostasis system (Model 5000, Haemoscope Corp., Niles, Ill., USA), with addition of CaCl2 as the last step to initiate clotting. Data were collected at 37° C. for 15 min in the first series of experiments involving coagulation alone, whereas in the experiments involving fibrinolysis data were collected until clot lysis time was observed. Elastic modulus-based parameters previously described were determined (Nielsen et al., 2009, Blood Coagul Fibrinolysis, 20: 377-380; Nielsen et al., 2009, Blood Coagul Fibrinolysis, 20: 448-455). The nomenclature used to describe these phenomena is as follows:
Time to maximum rate of thrombus generation (TMRTG): This is the time interval (min) observed prior to maximum speed of clot growth.
Maximum rate of thrombus generation (MRTG): This is the maximum velocity of clot growth observed (dynes/cm^2/sec).
Total Thrombus Generation (TTG): This is the total area under the velocity curve during clot growth (dynes/cm^2), representing the amount of clot strength generated during clot growth.
Thrombelastographic data are presented as mean±SD or as individual animal parameter values as appropriate. The effects of addition of CORM-2 and PHA on coagulation and fibrinolytic kinetic parameters were analyzed with one way repeated measures analysis of variance, utilizing Holm-Sidak post hoc test (SigmaStat 3.1, Systat Software, Inc., San Jose, Calif., USA) as appropriate. A P value of <0.05 was considered significant.

[1] abbreviates: horse with lethal disease, no tPA.
The mark [2] stands for this setting: horse with lethal enteritis, no tPA.
Setting [3] is: horse with mild disease, no tPA.
Where [4] appears, read: horse with mild enteritis, no tPA.
Where [5] appears, read: horse with moderate disease, no tPA.
The mark [6] stands for this setting: horse with moderate enteritis, no tPA.

Where two headings read alike, the source gives them in different places.

Regarding `[C-]#[O+].[C-]#[O+].[C-]#[O+].[C-]#[O+].[C-]#[O+].[C-]#[O+].[Cl][Ru][Cl].[Cl][Ru][Cl]` [CORM-2, tricarbonyldichlororuthenium (II) dimer], in the assay with human or rabbit plasma, the “increase in MRTG” value is on record as 64-100% and the “increase in TTG” value is 51-68%. The ear bleeding time entry with ear bleeding time (rabbits administered intravenous tPA) is “near normal”. Moreover, in the assay on ear bleeding time (rabbits with platelet inhibition by aspirin and clopidogrel), the ear bleeding time entry was “normal”. In the assay on horse plasma (setting [1]), this molecule yielded an MRTG of 5.0 dynes/cm^2/sec, a TMRTG of 3.7 min and a TTG of 126 dynes/cm^2. In the assay with horse plasma (setting [2]), the “increase in MRTG vs control sample” value was found to be 67% and the “increase in TTG vs control sample” value came to 97%. In the assay with horse plasma (setting [3]), this molecule yielded an MRTG of 10.2 dynes/cm^2/sec, a TMRTG of 2.9 min and a TTG of 308 dynes/cm^2. Also, in the assay on horse plasma (setting [4]), the “increase in MRTG vs control sample” value is reported as 16% and the “increase in TTG vs control sample” value is recorded as 25%. In addition, in the assay on horse plasma (setting [5]), the MRTG is given as 9.1 dynes/cm^2/sec, the TMRTG is recorded as 2.4 min and the TTG was determined as 238 dynes/cm^2. Moreover, in the assay with horse plasma (setting [6]), the “increase in MRTG vs control sample” value was found to be 28% and the “increase in TTG vs control sample” value was 47%. Also, the “increase in TTG vs control” value in the assay on horse plasma (normal horses, no tPA) turned out to be 9%. For the same molecule, in the assay on horse plasma (normal horses), the MA was determined as 40.4 ± 3.4, the MRTG stood at 13.0 ± 2.9 dynes/cm^2/sec, the R came out at 2.0 ± 0.4 and the TMRTG was determined as 2.8 ± 0.5 min. In the assay with horse plasma (normal horses), this molecule had a TTG of 342 ± 48 dynes/cm^2 and a α of 80.2 ± 2.1.
With `ONc1ccccc1` [PHA, phenylhydroxylamine], in the assay with horse plasma (setting [1]), the MRTG is recorded as 0.1 dynes/cm^2/sec, the TMRTG came to 8.2 min and the TTG is listed as 2 dynes/cm^2. The effect on coagulation entry in the assay on horse plasma (setting [2]) is “essentially extinguished coagulation”. In the assay with horse plasma (setting [3]), this molecule gave an MRTG of 4.8 dynes/cm^2/sec, a TMRTG of 3.9 min and a TTG of 177 dynes/cm^2. Besides, in the assay on horse plasma (setting [4]), the “decrease in MRTG vs control sample” value was 45% and the “decrease in TTG vs control sample” value came out at 28%. In addition, in the assay on horse plasma (setting [5]), the MRTG is listed as 3.9 dynes/cm^2/sec, the TMRTG was 3.5 min and the TTG amounted to 126 dynes/cm^2. In the assay on horse plasma (setting [6]), the “decrease in MRTG vs control sample” value stood at 45% and the “decrease in TTG vs control sample” value is reported as 22%. Also, in the assay with horse plasma (normal horses, no tPA), the “decrease in MRTG vs control” value amounted to 54% and the “decrease in TTG vs control” value is recorded as 47%. In the assay with horse plasma (normal horses), this molecule returned an MA of 24.6 ± 2.7, an MRTG of 6.2 ± 1.7 dynes/cm^2/sec, an R of 2.4 ± 0.4 and a TMRTG of 3.4 ± 0.6 min. In the assay on horse plasma (normal horses), the TTG turned out to be 166 ± 23 dynes/cm^2 and the α is on record as 71.7 ± 3.6.
